Measured values from patent US7112610B2, “Methods for using amino acids with affinity for the α2δ-protein” (Warner-Lambert Company LLC, priority 2003, dated 2006).
Structures can show the parent of a compound that is named as a salt.

target: T1, α2δ-subunit of a calcium channel (Sus scrofa, UniProt A0A287BIN3); experiment: radioligand binding assay using [3H]-gabapentin; conditions: α2δ-subunit derived from porcine brain tissue
T1 construct: the α2δ-subunit derived from porcine brain tissue was used; from tissue; host or cells: porcine brain tissue
T1 sequence (A0A287BIN3 25-1109): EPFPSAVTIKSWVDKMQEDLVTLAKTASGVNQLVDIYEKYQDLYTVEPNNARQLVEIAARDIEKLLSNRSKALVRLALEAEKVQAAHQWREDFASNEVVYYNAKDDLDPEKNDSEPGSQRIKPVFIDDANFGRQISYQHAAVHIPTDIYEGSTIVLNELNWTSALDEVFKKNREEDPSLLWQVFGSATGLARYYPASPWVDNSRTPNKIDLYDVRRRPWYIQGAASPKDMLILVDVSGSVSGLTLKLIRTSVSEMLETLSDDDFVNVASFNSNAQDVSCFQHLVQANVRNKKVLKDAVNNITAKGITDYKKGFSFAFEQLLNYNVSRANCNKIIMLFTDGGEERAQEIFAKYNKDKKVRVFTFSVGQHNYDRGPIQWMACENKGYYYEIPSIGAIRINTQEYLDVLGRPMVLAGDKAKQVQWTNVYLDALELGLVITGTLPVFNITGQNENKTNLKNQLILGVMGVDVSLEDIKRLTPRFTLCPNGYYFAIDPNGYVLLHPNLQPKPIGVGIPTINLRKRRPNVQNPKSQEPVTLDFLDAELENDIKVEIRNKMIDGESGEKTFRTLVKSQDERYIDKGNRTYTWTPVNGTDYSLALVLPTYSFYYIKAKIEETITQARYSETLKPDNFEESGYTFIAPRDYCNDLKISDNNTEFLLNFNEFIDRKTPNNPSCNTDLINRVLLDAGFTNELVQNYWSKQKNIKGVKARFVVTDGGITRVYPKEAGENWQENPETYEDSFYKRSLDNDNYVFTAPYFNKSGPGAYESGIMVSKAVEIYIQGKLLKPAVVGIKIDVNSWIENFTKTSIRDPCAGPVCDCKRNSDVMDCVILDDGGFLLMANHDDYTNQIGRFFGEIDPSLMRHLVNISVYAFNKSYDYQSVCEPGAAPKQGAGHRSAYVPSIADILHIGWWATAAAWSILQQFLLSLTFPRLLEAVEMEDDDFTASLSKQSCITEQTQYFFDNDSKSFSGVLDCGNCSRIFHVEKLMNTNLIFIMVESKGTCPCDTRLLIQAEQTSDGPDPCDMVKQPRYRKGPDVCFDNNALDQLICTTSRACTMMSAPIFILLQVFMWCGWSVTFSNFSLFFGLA
Excerpt: The ability of compounds of the present invention to bind to the α2δ-subunit of a calcium channel can be determined using the following binding assay.
The radioligand binding assay using [^3H]-gabapentin and the α2δ-subunit derived from porcine brain tissue was used (See, Gee, Nicolas S et al. “The novel anticonvulsant drug, gabapentin (Neurontin), binds to the α2δ subunit of a calcium channel”. J. Biol. Chem. (1996), 271 (10), 5768–76). Compounds of the invention bind with nanomolar to micromolar affinity for the α2δ protein.

SMILES | affinity to the α2δ protein [nM]
CCCC(C)(C)CC(CN)C(=O)O.Cl (stereo not drawn) [2-Aminomethyl-4,4-dimethyl-heptanoic Acid Hydrochloride] | 83
CCC[C@@H](C)C[C@H](CN)C(=O)O [(2R,4R)-2-Aminomethyl-4-methyl-heptanoic Acid] | 29
CCC[C@H](C)C[C@H](N)CC(=O)O [(3S,5S)-3-amino-5-methyl-octanoic acid] | 1000
CC(C)CCCC(C)C[C@@H](N)CC(=O)O (stereo partly drawn) [R-3-amino-5,9-dimethyl-decanoic acid] | 527

tested on: not given; experiment: not given; conditions: not given

SMILES | melting point [°C]
CCC[C@@H](C)C[C@H](N)CC(=O)O.Cl | 142.5 to 142.7
CCC[C@@H](C)C[C@H](CN)C(=O)O (as salt: hydrochloride) [(2R,4R)-2-Aminomethyl-4-methyl-heptanoic Acid] | 226.3 to 228
CCCC(C)(C)CC(CN)C(=O)O.Cl (stereo not drawn) [2-Aminomethyl-4,4-dimethyl-heptanoic Acid Hydrochloride] | 229.5 to 231

The next lines start with the values.

melting point [°C] | SMILES
142.5 to 143.3 | CCCC[C@@H](C)C[C@H](N)CC(=O)O (as salt: hydrochloride)
194.2 to 195.2 | CCCC(C)(C)C[C@H](N)CC(=O)O (as salt: hydrochloride)
